Results: ChEMBL document CHEMBL1135966, “New synthetic analogues of N-acyl homoserine lactones as agonists or antagonists of transcriptional regulators involved in bacterial quorum sensing” (Bioorg Med Chem Lett, 2002)

Test system: Aliivibrio fischeri
Assay: Concentration required for 50% inhibition of 3-oxo-C6-HSL-induced luminescence of the biosensor strain

SMILES	IC50
O=C(CC(=O)NC1CCOC1=O)CC1CCCC1 (centres undefined)	250 nM
O=C(CCCC1CCCCC1)NC1CCOC1=O (centres undefined)	> 6000 nM
O=C(CC(=O)NC1CCOC1=O)Cc1ccc(F)cc1 (centres undefined)	4000 nM
O=C(CC(=O)NC1CCOC1=O)Cc1ccc(Cl)cc1 (centres undefined)	3000 nM
O=C(CC(=O)NC1CCOC1=O)Cc1ccccc1Cl (centres undefined)	6000 nM
O=C(CC(=O)NC1CCOC1=O)CC1CCCCC1 (centres undefined)	1100 nM
O=C(CSCc1ccccc1)NC1CCOC1=O (centres undefined)	2000 nM
O=C(COCc1ccccc1)NC1CCOC1=O (centres undefined)	3000 nM
Cc1ccc(CC(=O)CC(=O)NC2CCOC2=O)cc1 (centres undefined)	4000 nM
COc1ccc(CC(=O)CC(=O)NC2CCOC2=O)cc1 (centres undefined)	3000 nM
CC(C)CC(=O)CC(=O)NC1CCOC1=O (centres undefined)	500 nM
O=C(CC(=O)NC1CCOC1=O)Cc1ccccc1 (centres undefined)	2000 nM
O=C(CC(=O)NC1CCOC1=O)Cc1ccc(C(F)(F)F)cc1 (centres undefined)	10000 nM
CCCCCC(=O)NC1CCOC1=O (centres undefined)	> 9000 nM
O=C(CC(=O)NC1CCOC1=O)Cc1cccc(Cl)c1 (centres undefined)	4000 nM
O=C(CCCc1ccccc1)NC1CCOC1=O (centres undefined)	2000 nM
CCCC(=O)CC(=O)NC1CCOC1=O (centres undefined)	200 nM
O=C(CC(=O)NC1CCOC1=O)Cc1ccc(Br)cc1 (centres undefined)	2000 nM
CC(C)(C)CC(=O)CC(=O)NC1CCOC1=O (centres undefined)	15000 nM
